Laboratory results: ChEMBL document CHEMBL4376848, “Synthesis and discovery of triazolo-pyridazine-6-yl-substituted piperazines as effective anti-diabetic drugs; evaluated over dipeptidyl peptidase-4 inhibition mechanism and insulinotropic activities” (Eur J Med Chem, 2020)
In brackets after ≈: the same amount, converted by molar mass.

What was measured:
[1] = Antioxidant activity assessed as inhibition of H2O2 radical scavenging activity incubated for 60 mins by UV-spectrophotometric method relative to control; format: functional
[2] = Antioxidant activity assessed as inhibition of H2O2 radical scavenging activity incubated for 60 mins by UV-spectrophotometric method; format: functional
[3] = system: INS1(832/13); test: cells; conditions: Rattus norvegicus, INS-1 832/13, 2 h
Description: Antidiabetic activity in glucose-treated rat INS1(832/13) cells assessed as increase in insulin release in presence of 3 mM glucose measured after 2 hrs by radioimmunoassay

[4] = system: INS1(832/13); test: Cytotoxicity against rat INS1(832/13) cells assessed as cell viability upto 3 nM in RPMI medium incubated for over night followed by insulin addition by Alamar Blue assay; format: cell-based
[5] = system: INS1(832/13); test: Cytotoxicity against rat INS1(832/13) cells assessed as cell viability at 3.5 nM in RPMI medium incubated for over night followed by insulin addition by Alamar Blue assay; format: cell-based; conditions: 0.0035 µM
[6] = system: INS1(832/13); test: Antidiabetic activity in glucose-treated rat INS1(832/13) cells assessed as increase in insulin release at 1 ug/ml in presence of 3 mM glucose measured after 2 hrs by radioimmunoassay (reference value: 52.25 +/- 2.15 %); format: functional
[7] = system: INS1(832/13); test: Antidiabetic activity in glucose-treated rat INS1(832/13) cells assessed as increase in insulin release at 10 ug/ml in presence of 3 mM glucose measured after 2 hrs by radioimmunoassay (reference value: 52.25 +/- 2.15 %); format: functional

Structure (SMILES) | inhibition [1] [%] | IC50 [2] [µg/mL] | IC50 [3] [nM] | Activity [4] | Activity [5] | inhibition (INH) [6] [%] | inhibition (INH) [7] [%]
Cc1cccc(-c2nnc3ccc(N4CCN(C(c5ccccc5)c5ccccc5)CC4)nn23)c1 | 93.2 | 1.75 (≈ 3.8 µM) | 4.8 | – | – | – | –
Cc1cccc(-c2nnc3ccc(N4CCN(S(C)(=O)=O)CC4)nn23)c1 | 84.2 | 10.8 (≈ 29 µM) | – | – | – | – | –
Cc1cccc(-c2nnc3ccc(N4CCN(Cc5ccccc5)CC4)nn23)c1 | 86.2 | 13.4 (≈ 34.9 µM) | – | – | – | – | –
CCOC(=O)N1CCN(c2ccc3nnc(-c4cccc(C)c4)n3n2)CC1 | 96.8 | 1 (≈ 2.73 µM) | 2.8 | Non-Toxic | Toxic | – | –
COc1ccc(N2CCN(c3ccc4nnc(-c5cccc(C)c5)n4n3)CC2)cc1 | 75.6 | 45.9 (≈ 115 µM) | – | – | – | – | –
Cc1cccc(-c2nnc3ccc(N4CCN(CCN)CC4)nn23)c1 | 78.2 | 25.4 (≈ 75.3 µM) | – | – | – | – | –
CCOc1cc(CC(=O)N[C@@H](CC(C)C)c2ccccc2N2CCCCC2)ccc1C(=O)O [REPAGLINIDE] | – | – | 1250 | – | – | 96.16 | 99.05
Cc1cccc(-c2nnc3ccc(N4CCN(CCOCCO)CC4)nn23)c1 | 83.2 | 16.8 (≈ 43.9 µM) | – | – | – | – | –
CC(=O)N1CCN(c2ccc3nnc(-c4cccc(C)c4)n3n2)CC1 | 78.2 | 28.6 (≈ 85 µM) | – | – | – | – | –
Cc1cccc(-c2nnc3ccc(N4CCN(C(=O)OC(C)(C)C)C(Cc5ccccc5)C4)nn23)c1 (stereo unspecified) | 80.1 | 15.8 (≈ 32.6 µM) | – | – | – | – | –
O=C1O[C@H]([C@@H](O)CO)C(O)=C1O [ASCORBIC ACID] | – | 25.3 (≈ 144 µM) | – | – | – | – | –
Cc1cccc(-c2nnc3ccc(N4CCN(C(=O)c5ccccc5)CC4)nn23)c1 | 94.1 | 2.25 (≈ 5.65 µM) | 1.5 | Non-Toxic | Toxic | – | –
Cc1cccc(-c2nnc3ccc(N4CCN(Cc5ccccc5)C(C(=O)O)C4)nn23)c1 (stereo unspecified) | 69.4 | 85.5 (≈ 200 µM) | – | – | – | – | –
Cc1cccc(-c2nnc3ccc(N4CCN(Cc5ccc(F)cc5)CC4)nn23)c1 | 91.2 | 2 (≈ 4.97 µM) | 3.9 | – | – | – | –
